Experimental data as given in patent US8987199B2, “Pharmaceutical compositions for intranasal administration for the treatment of neurodegenerative disorders” (Nerve Access, Inc., priority 2011, dated 2015).

Assay: Solubility of clioquinol in an aqueous medium
Type: physicochemical
Source text: The invention also includes a process to dissolve, stabilize and incorporate clioquinol into an intranasal preparation. Clioquinol dissolves in DMSO. However, it precipitates upon the addition of an aqueous vehicle to that combination. In order to dissolve in an aqueous medium clioquinol requires a pH of approximately 11. A buffering system was developed that maintains the solubility and stability of clioquinol within a pH 7-8 which is compatible with the physiological pH oh the nasal tissue. The buffering system was adjusted to provide a capacity of pH 5-7, within which the preparation will be contained within 7-8 pH. The choice of the buffering system was based on the safety, chemical and physical effects of its ingredients on clioquinol and the other ingredients incorporated in the formula, as well as its effects on the end user of present pharmaceutical composition. The buffer system comprises boric acid and sodium carbonate in certain proportions to produce a protective pH 7-8 at which clioquinol stays physically and chemically stable.

Oc1c(I)cc(Cl)c2cccnc12 [Clioquinol]
pH required to dissolve in an aqueous medium: approximately 11
